Where “and” joins values, the source holds several entries; their conditions need not be identical. Identical values can stand only once.
What was measured:
[1] = test system: Staphylococcus epidermidis strains; assay: Antibacterial activity of AMPs (MIC100) and synergism (FIC index); assay type: cell-based; settings: against Staphylococcus epidermidis strains, single agent
Description: (§1) Antibacterial activity of the peptides used in this work was evaluated as described previously. […] The fractional inhibitory concentration (FIC) index for combinations of two peptides was calculated according to the equation: FIC index = […] = A/MICA + B/MICB , where A and B are the MICs of drug A and drug B in the combination, MICA and MICB are the MICs of drug A and drug B alone, and FICA and FICB are the FICs of drug A and drug B. The FIC indices were interpreted as follows: ≤0.5, synergy; 0.51-4.0, no interaction; > 4.0, antagonism.

[2] = test system: J774 cells; assay: Nitrite (NO2-) formation in J774 cells, Griess reaction; assay type: cell-based, mouse
[3] = test system: Staphylococcus epidermidis strains; assay: % inhibition of bacterial growth by the MIX and its components; assay type: cell-based; settings: MIX = both
Description: as §1, with “antagonism. The growth inhibition percentages of Staphylococcus epidermidis and probiotic strains were assessed under the same conditions.” for “antagonism.”

## KKYLLPI VGNLLKSLL-NH2 [TB-KK, analogue of the temporin B]
[1]; 10^5 CFU/well
  MIC100: 7 µg/mL
[1]; value in brackets
  MIC: 3 µM
[2]
  NO2- production of J774 cells: 0.82 ± 0.05 μmol/10^6 cells and 1.25 ± 0.2 μmol/10^6 cells and 1.34 ± 0.2 μmol/10^6 cells
  NO2- synthesis in LPS-stimulated J774 cells, in words: reduced NO2^- synthesis
[3]; strain 2/2, RJI-C 9 μg/ml, TB-KK 6 μg/ml
  % inhibition of bacterial growth: 23 ± 0.5%
[3]; strain 3/28, RJI-C 9 μg/ml (7.3 μM), TB-KK 6 μg/ml (2.6 μM)
  % inhibition of bacterial growth: 19 ± 2%
[3]; strain 5/6, RJI-C 9 μg/ml, TB-KK 6 μg/ml
  % inhibition of bacterial growth: 10 ± 1%
[3]; strain 5/8, RJI-C 9 μg/ml, TB-KK 6 μg/ml
  % inhibition of bacterial growth: 21 ± 2%
[3]; strain 5/25, RJI-C 9 μg/ml, TB-KK 6 μg/ml
  % inhibition of bacterial growth: 21 ± 1%
[3]; strain 9/1, RJI-C 9 μg/ml, TB-KK 6 μg/ml
  % inhibition of bacterial growth: 26 ± 2%
[3]; strain 10/28, RJI-C 9 μg/ml, TB-KK 6 μg/ml
  % inhibition of bacterial growth: 4 ± 1%
[3]; strain 12/14, RJI-C 9 μg/ml, TB-KK 6 μg/ml
  % inhibition of bacterial growth: 20 ± 3%
[3]; strain 12/26, RJI-C 9 μg/ml, TB-KK 6 μg/ml
  % inhibition of bacterial growth: 14 ± 2%

From PMC3526545, “New perspectives for natural antimicrobial peptides: application as antinflammatory drugs in a murine model” (BMC Immunology, 2012)
